Where “and” joins values, the source holds several entries; their conditions need not be identical. Equal values may be shown once.

The assay relates to Bla g-specific T cells (PBMC). The experiment in a line: ELISPOT assays: IL-5, IFN-γ and IL-10 production by in vitro expanded PBMC of Cockroach-allergic donors. It is filed as cell-based, human. The following applies: for Total SFCs: IL-5 plus IFN-γ, summed over responding donors; for Cumulative Response: cumulative over regions ranked by total SFCs; for IFNγ / IL-5: individual peptide, one line per responding donor; for Donors Responding: number of allergic donors (34 tested) with T cell response to the region; for % Total Response: share of total Bla g specific response; for POST-SIT IFNg / POST-SIT IL-5 / POST-SIT IL-10: 6 months after initiation of SIT; for PRE-SIT IL-5 / PRE-SIT IL-10 / PRE-SIT IFNg: before SIT; for PRE-SIT IFNg: one line per donor/peptide. The method, then:
In vitro expansion of Bla g-specific T cells: PBMC were cultured in RPMI 1640 (V Scientific, Tarzana, Calif.) supplemented with 5% human serum (Cellgro, Herndon, Va.) at a density of 2×10^6 cells/ml in 24-well plates (BD Biosciences, San Jose, Calif.) and stimulated with 25 μg/ml German Cockroach (Blatella germanica; Bla g) extract (Greer, Lenoir, N.C.), or individual peptides. […] On day 14, cells were harvested and screened for reactivity against Bla g-specific peptide pools or individual peptides. ELISPOT assays: The production of IL-5, IFN-γ, and IL-10 was analyzed in ELISPOT assays. […] Cells were then incubated at a density of 1×10^5/well either with peptide pools or individual peptides (10 μg/ml), German Cockroach extract (25 μg/ml), PHA (10 μg/ml), or medium (containing 1% DMSO corresponding to the percentage of DMSO in the pools/peptides) as a control. […] Louis, Mo.). Spots were counted by computer-assisted image analysis (Zeiss, KS-ELISPOT reader, Munich, Germany). Each assay was performed in triplicate. The level of statistical significance was determined with a Student's t-test using the mean of triplicate values of the response against relevant pools or individual peptides versus the response against the DMSO control.

In the case of “PELQNFLNFLEANGL (listed as Blattella germanica) [Region 4, Bla g 1 position 281]”, the “Total SFCs” value was 323 SFCs, the “Cumulative Response” value was 94.5%, the IFNγ came to 323 SFC and the IL-5 is given as 0 SFC. Also, the “Donors Responding” value was found to be 1 and the “% Total Response” value is 1.3%.

With “ALREKVLGLPAIKAW (listed as Blattella germanica)”, the IFNγ is 843 SFC and 100 SFC and 0 SFC and 183 SFC and 147 SFC and 1690 SFC; the IL-5 was 0 SFC (3×) and 267 SFC and 380 SFC and 1087 SFC.

With “PLYKLVHVFINTQYA (listed as Blattella germanica) [Region 6, Bla g 2 position 26]”, the “Total SFCs” value came to 240 SFCs, the “Cumulative Response” value is recorded as 97.8%, the IFNγ was 240 SFC and the IL-5 came out at 0 SFC. Further, the “Donors Responding” value is listed as 1 and the “% Total Response” value was determined as 1.0%.

With “VLGLPAIKAWVAKRP (listed as Blattella germanica)”, the IFNγ is 50 SFC and 73 SFC; the IL-5 is 0 SFC and 133 SFC.

Take “MVGTILEMLGTRLDQ (listed as Blattella germanica)”: the IFNγ is on record as 0 SFC and the IL-5 is recorded as 267 SFC.

As to “FETIVVTVDSLPEFK (listed as Blattella germanica) [Region 1, Bla g 1 position 351]”, the “Total SFCs” value is given as 167 SFCs, the “Cumulative Response” value is reported as 98.5%, the IFNγ amounted to 167 SFC and the IL-5 was 0 SFC. In addition, the “Donors Responding” value was determined as 1 and the “% Total Response” value came to 0.7%.

With “PEFQSIVQTLNAMPEYQNLL (listed as Blattella germanica) [Region 3, Bla g 1 position 40]”, the “POST-SIT IFNg” value stood at 0 SFC/10^6, the “POST-SIT IL-5” value worked out at 0 SFC/10^6, the “POST-SIT IL-10” value worked out at 0 SFC/10^6 and the “Total SFCs” value stood at 327 SFCs. The “PRE-SIT IL-5” value came to 87 SFC/10^6, the “PRE-SIT IL-10” value was 0 SFC/10^6, the “PRE-SIT IFNg” value amounted to 153 SFC/10^6 and the “Cumulative Response” value came to 93.2%. In addition, the “Donors Responding” value amounted to 2 and the “% Total Response” value was determined as 1.3%.

For the sequence “FAVATITHAAELQRV (listed as Blattella germanica) [Region 5, Bla g 2 position 11]”, the “T cell response pattern (IL-5 / IFN-γ), in words” value is recorded as “only associated with IFN-γ production”; the “Total SFCs” value came to 855 SFCs; the “Cumulative Response” value worked out at 86.9%; the IFNγ is listed as 855 SFC. The IL-5 is 0 SFC, the “Donors Responding” value was 1 and the “% Total Response” value turned out to be 3.5%.

For “PEQIQLLKKAFDAFD (listed as Blattella germanica) [Region 23, Bla g 6 position 6]”, the “T cell response pattern (IL-5 / IFN-γ), in words” value is given as “only IL-5 production”; the “Total SFCs” value was determined as 1245 SFCs; the “Cumulative Response” value is recorded as 66.6%; the IFNγ is listed as 0 SFC. The IL-5 was 1172 SFC and 73 SFC; the “Donors Responding” value is 2; the “% Total Response” value worked out at 5.1%.

Take “EAMEKELREAFRLYD (listed as Blattella germanica) [Region 21, Bla g 6 position 86]”: the “Total SFCs” value stood at 53 SFCs, the “Cumulative Response” value stood at 99.8%, the IFNγ is on record as 0 SFC and the IL-5 was found to be 53 SFC. Besides, the “Donors Responding” value was found to be 1 and the “% Total Response” value was determined as 0.2%.

Regarding “EQISVLRKAFDAFDR (listed as Blattella germanica)”, the IFNγ is listed as 0 SFC and the IL-5 stood at 340 SFC.

On to “GYITTNVLREILKEL (listed as Blattella germanica) [Region 25]”, for which the “POST-SIT IFNg” value was determined as 0 SFC/10^6, the “POST-SIT IL-5” value was found to be 0 SFC/10^6, the “POST-SIT IL-10” value is listed as 0 SFC/10^6 and the “Total SFCs” value stood at 50 SFCs. Moreover, the “PRE-SIT IL-5” value is 50 SFC/10^6, the “PRE-SIT IL-10” value stood at 0 SFC/10^6, the “PRE-SIT IFNg” value stood at 0 SFC/10^6 and the “Cumulative Response” value is listed as 100.0%. The IFNγ was determined as 0 SFC, the IL-5 is given as 50 SFC, the “Donors Responding” value was found to be 1 and the “% Total Response” value came out at 0.2%.

As to “LRKAFDAFDREKSGS (listed as Blattella germanica)”, the IFNγ is 90 SFC and the IL-5 was 327 SFC.

In the case of “GNQNFLTVFDSTSCN (listed as Blattella germanica) [Region 7, Bla g 2 position 46]”, the “T cell response pattern (IL-5 / IFN-γ), in words” value is on record as “only associated with IFN-γ production”; the “Total SFCs” value is on record as 55 SFCs; the “Cumulative Response” value amounted to 99.6%; the IFNγ was found to be 55 SFC. For the same sequence, the IL-5 is given as 0 SFC, the “Donors Responding” value is recorded as 1 and the “% Total Response” value was 0.2%.

As for “EEFVSLASRFLVEED (listed as Blattella germanica)”, the IFNγ is given as 220 SFC and the IL-5 was 0 SFC.

Consider “ISSQYYIQQNGNLCY (listed as Blattella germanica) [Region 8, Bla g 2 position 296]”, for which the “Total SFCs” value came to 153 SFCs, the “Cumulative Response” value was found to be 99.1%, the IFNγ was 153 SFC and the IL-5 came to 0 SFC. The “Donors Responding” value is given as 1 and the “% Total Response” value was 0.6%.

On to “EFVTLAAKFIIEEDS (listed as Blattella germanica) [Region 19, Bla g 6 position 71]”, for which the “Total SFCs” value stood at 443 SFCs, the “Cumulative Response” value is 91.8%, the IFNγ is on record as 0 SFC and the IL-5 is on record as 443 SFC. For the same sequence, the “Donors Responding” value stood at 1 and the “% Total Response” value stood at 1.8%.

For “HFFIGDFFVDHYYSE (listed as Blattella germanica) [Region 9, Bla g 2 position 321]”, the “Total SFCs” value came to 250 SFCs, the “Cumulative Response” value amounted to 96.8%, the IFNγ was determined as 250 SFC and the IL-5 is reported as 0 SFC. Moreover, the “Donors Responding” value was 1 and the “% Total Response” value was 1.0%.

As for “IVQTLNAMPEYQNLL (listed as Blattella germanica)”, the IFNγ amounted to 153 SFC and the IL-5 stood at 87 SFC.

For “MVGTILEMLGHRLDD (listed as Blattella germanica) [Region 24, Bla g 6 position 31]”, the “POST-SIT IFNg” value turned out to be 0 SFC/10^6, the “POST-SIT IL-5” value amounted to 0 SFC/10^6, the “POST-SIT IL-10” value was 0 SFC/10^6 and the “Total SFCs” value amounted to 317 SFCs. In addition, the “PRE-SIT IL-5” value was determined as 50 SFC/10^6, the “PRE-SIT IL-10” value is 0 SFC/10^6, the “PRE-SIT IFNg” value came out at 0 SFC/10^6 and the “Cumulative Response” value was determined as 95.8%. The IFNγ is listed as 0 SFC, the IL-5 is recorded as 50 SFC, the “Donors Responding” value stood at 2 and the “% Total Response” value is given as 1.3%.

On to “SGTVDFDEFMEMMTG (listed as Blattella germanica) [Region 22, Bla g 6 position 140]”, for which the “Total SFCs” value is 57 SFCs, the “Cumulative Response” value came to 99.4%, the IFNγ was 0 SFC and the IL-5 is listed as 57 SFC. Further, the “Donors Responding” value amounted to 1 and the “% Total Response” value was found to be 0.2%.

Consider “SMPFGKTPVLEIDGK (listed as Blattella germanica) [Region 11, Bla g 5 position 46]”, for which the “Total SFCs” value is recorded as 874 SFCs; the “Cumulative Response” value is 83.4%; the IFNγ is 57 SFC and 250 SFC; the IL-5 is 0 SFC and 567 SFC. In addition, the “Donors Responding” value was found to be 2 and the “% Total Response” value is given as 3.6%.

Regarding “FLLSYGEKDFEDYRF (listed as Blattella germanica)”, the IFNγ was 0 SFC (2×) and 77 SFC and 127 SFC; the IL-5 was 1537 SFC and 0 SFC and 203 SFC and 193 SFC.

“PEFQSIVQTLNAMPE (listed as Blattella germanica)”: the IFNγ amounted to 87 SFC and the IL-5 is reported as 0 SFC.

In the case of “GEPIRFLLSYGEKDF (listed as Blattella germanica)”, the IFNγ was determined as 205 SFC and the IL-5 was 0 SFC.

On to “EVVKANGGYLAAGKL (listed as Blattella germanica)”, for which the IFNγ is 80 SFC and 380 SFC; the IL-5 was 467 SFC and 0 SFC.

Turning to “HMAKEDLVANQPNLK (listed as Blattella germanica)”, the IFNγ came to 610 SFC and the IL-5 is given as 273 SFC.
